Data published in PubChem BioAssay (NCI).
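Interpolation was linear, between the two tested concentrations surrounding the appropriate level; five concentrations were tested over 48 hours in 96-well plates. GI50 is the concentration that inhibits growth by half. TGI is the concentration that stops growth completely.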

Assays:
Experiment in all cases: NCI tumour cell line growth inhibition, 48 h
[1] = tested on: SF-268 CNS
[2] = tested on: MDA-MB-435
[3] = tested on: HL-60(TB) leukemia
[4] = tested on: OVCAR-3 ovarian
[5] = tested on: RPMI-8226 leukemia
[6] = tested on: SF-539 CNS
[7] = tested on: CCRF-CEM leukemia
[8] = tested on: 786-0 renal
[9] = tested on: NCI/ADR-RES ovarian
[10] = tested on: MDA-MB-231 breast
[11] = tested on: HCT-116 colon
[12] = tested on: OVCAR-8 ovarian
[13] = tested on: MCF7 breast
[14] = tested on: BT-549 breast
[15] = tested on: MOLT-4 leukemia
[16] = tested on: UO-31 renal
[17] = tested on: KM12 colon
[18] = tested on: HS 578T breast
[19] = tested on: OVCAR-5 ovarian
[20] = tested on: RXF 393 renal
[21] = tested on: U251 CNS
[22] = tested on: IGROV1 ovarian
[23] = tested on: SK-MEL-28 melanoma
[24] = tested on: PC-3 prostate
[25] = tested on: MALME-3M melanoma
[26] = tested on: DU-145 prostate
[27] = tested on: TK-10 renal
[28] = tested on: SW-620 colon
[29] = tested on: A549 NSCLC
[30] = tested on: ACHN renal
[31] = tested on: K-562 leukemia
[32] = tested on: SF-295 CNS
[33] = tested on: NCI-H226 lung
[34] = tested on: NCI-H460 lung
[35] = tested on: SN12C renal
[36] = tested on: HOP-62 NSCLC
[37] = tested on: T-47D breast
[38] = tested on: SK-OV-3 ovarian
[39] = tested on: CAKI-1 renal
[40] = tested on: NCI-H23 lung
[41] = tested on: SNB-19 CNS
[42] = tested on: SNB-75 CNS
[43] = tested on: NCI-H522 lung
[44] = tested on: LOX IMVI melanoma
[45] = tested on: HCT-15 colon
[46] = tested on: HOP-92 NSCLC
[47] = tested on: UACC-257 melanoma
[48] = tested on: SR leukemia
[49] = tested on: SK-MEL-2 melanoma
[50] = tested on: OVCAR-4 ovarian
[51] = tested on: COLO 205 colon
[52] = tested on: HT29 colon
[53] = tested on: UACC-62 melanoma
[54] = tested on: SK-MEL-5 melanoma
[55] = tested on: HCC-2998 colon
[56] = tested on: A498 renal
[57] = tested on: EKVX NSCLC
[58] = tested on: M14 melanoma

CCCCCC(=O)N1c2ccccc2NC2=C(C(=O)CC(c3ccc(OC)c(OC)c3)C2)C1c1ccc(C(F)(F)F)cc1 (stereo not given)
GI50 [1]: > 100 µM
TGI [1]: > 100 µM
GI50 [2]: 50.7 µM
TGI [2]: > 100 µM
GI50 [3]: > 100 µM
TGI [3]: > 100 µM
GI50 [4]: > 100 µM
TGI [4]: > 100 µM
GI50 [5]: 5.98 µM
TGI [5]: > 100 µM
GI50 [6]: > 100 µM
TGI [6]: > 100 µM
GI50 [7]: > 100 µM
TGI [7]: > 100 µM
GI50 [8]: > 100 µM
TGI [8]: > 100 µM
GI50 [9]: > 100 µM
TGI [9]: > 100 µM
GI50 [10]: 20.4 µM
TGI [10]: > 100 µM
GI50 [11]: 72.1 µM
TGI [11]: > 100 µM
GI50 [12]: > 100 µM
TGI [12]: > 100 µM
GI50 [13]: 24.3 µM
TGI [13]: > 100 µM
GI50 [14]: > 100 µM
TGI [14]: > 100 µM
GI50 [15]: 8.9 µM
TGI [15]: > 100 µM
GI50 [16]: 42.5 µM
TGI [16]: > 100 µM
GI50 [17]: > 100 µM
TGI [17]: > 100 µM
GI50 [18]: > 100 µM
TGI [18]: > 100 µM
GI50 [19]: > 100 µM
TGI [19]: > 100 µM
GI50 [20]: 37.6 µM
TGI [20]: > 100 µM
GI50 [21]: > 100 µM
TGI [21]: > 100 µM
GI50 [22]: > 100 µM
TGI [22]: > 100 µM
GI50 [23]: > 100 µM
TGI [23]: > 100 µM
GI50 [24]: 6.25 µM
TGI [24]: > 100 µM
GI50 [25]: > 100 µM
TGI [25]: > 100 µM
GI50 [26]: > 100 µM
TGI [26]: > 100 µM
GI50 [27]: > 100 µM
TGI [27]: > 100 µM
GI50 [28]: > 100 µM
TGI [28]: > 100 µM
GI50 [29]: > 100 µM
TGI [29]: > 100 µM
GI50 [30]: > 100 µM
TGI [30]: > 100 µM
GI50 [31]: > 100 µM
TGI [31]: > 100 µM
GI50 [32]: > 100 µM
TGI [32]: > 100 µM
GI50 [33]: > 100 µM
TGI [33]: > 100 µM
GI50 [34]: > 100 µM
TGI [34]: > 100 µM
GI50 [35]: > 100 µM
TGI [35]: > 100 µM
GI50 [36]: > 100 µM
TGI [36]: > 100 µM
GI50 [37]: > 100 µM
TGI [37]: > 100 µM
GI50 [38]: > 100 µM
TGI [38]: > 100 µM
GI50 [39]: 35.6 µM
TGI [39]: > 100 µM
GI50 [40]: > 100 µM
TGI [40]: > 100 µM
GI50 [41]: > 100 µM
TGI [41]: > 100 µM
GI50 [42]: 15.3 µM
TGI [42]: > 100 µM
GI50 [43]: 70.8 µM
TGI [43]: > 100 µM
GI50 [44]: > 100 µM
TGI [44]: > 100 µM
GI50 [45]: > 100 µM
TGI [45]: > 100 µM
GI50 [46]: 12.2 µM
TGI [46]: > 100 µM
GI50 [47]: > 100 µM
TGI [47]: > 100 µM
GI50 [48]: > 100 µM
TGI [48]: > 100 µM
GI50 [49]: > 100 µM
TGI [49]: > 100 µM
GI50 [50]: 15.8 µM
TGI [50]: > 100 µM
GI50 [51]: > 100 µM
TGI [51]: > 100 µM
GI50 [52]: > 100 µM
TGI [52]: > 100 µM
GI50 [53]: 97.1 µM
TGI [53]: > 100 µM
GI50 [54]: 62.8 µM
TGI [54]: > 100 µM
GI50 [55]: > 100 µM
TGI [55]: > 100 µM

OCCNc1nc(NCCO)nc(Nc2ccc(C3=NN(c4cc(Cl)cc(Cl)c4)C(c4ccc(Cl)cc4)C3)cc2)n1 (stereo not given)
GI50 [1]: 1.86 µM
TGI [1]: 3.79 µM
GI50 [2]: 1.65 µM
TGI [2]: 3.11 µM
GI50 [3]: 1.86 µM
TGI [3]: 3.85 µM
GI50 [4]: 1.75 µM
TGI [4]: 3.19 µM
GI50 [5]: 1.91 µM
TGI [5]: 4.85 µM
GI50 [6]: 1.35 µM
TGI [6]: 2.63 µM
GI50 [7]: 2.11 µM
TGI [7]: 5.46 µM
GI50 [8]: 1.64 µM
TGI [8]: 3.28 µM
GI50 [56]: 1.73 µM
TGI [56]: 3.57 µM
GI50 [9]: 2.6 µM
TGI [9]: 7.08 µM
GI50 [10]: 1.71 µM
TGI [10]: 3.42 µM
GI50 [11]: 1.59 µM
TGI [11]: 3.05 µM
GI50 [12]: 2.08 µM
TGI [12]: 4.75 µM
GI50 [13]: 1.42 µM
TGI [13]: 3.31 µM
GI50 [14]: 1.77 µM
TGI [14]: 3.8 µM
GI50 [15]: 1.52 µM
TGI [15]: 4.02 µM
GI50 [16]: 1.63 µM
TGI [16]: 3.16 µM
GI50 [17]: 1.85 µM
TGI [17]: 4 µM
GI50 [18]: 2.22 µM
TGI [18]: 6.98 µM
GI50 [19]: 1.96 µM
TGI [19]: 4.43 µM
GI50 [20]: 1.44 µM
TGI [20]: 2.91 µM
GI50 [21]: 1.51 µM
TGI [21]: 3.04 µM
GI50 [57]: 2.04 µM
TGI [57]: 4.72 µM
GI50 [22]: 2.48 µM
TGI [22]: 5.68 µM
GI50 [23]: 1.61 µM
TGI [23]: 3.02 µM
GI50 [24]: 1.62 µM
TGI [24]: 4.32 µM
GI50 [25]: 2.1 µM
TGI [25]: 3.92 µM
GI50 [26]: 1.67 µM
TGI [26]: 3.22 µM
GI50 [27]: 1.89 µM
TGI [27]: 3.72 µM
GI50 [28]: 2.03 µM
TGI [28]: 4.52 µM
GI50 [29]: 1.96 µM
TGI [29]: 4.45 µM
GI50 [30]: 1.55 µM
TGI [30]: 3.17 µM
GI50 [31]: 1.73 µM
TGI [31]: 3.74 µM
GI50 [32]: 1.47 µM
TGI [32]: 2.85 µM
GI50 [33]: 2.45 µM
TGI [33]: 5.48 µM
GI50 [34]: 1.89 µM
TGI [34]: 3.66 µM
GI50 [35]: 1.82 µM
TGI [35]: 3.47 µM
GI50 [37]: 1.5 µM
TGI [37]: 3.88 µM
GI50 [38]: 2.31 µM
TGI [38]: 5.15 µM
GI50 [40]: 1.72 µM
TGI [40]: 3.4 µM
GI50 [41]: 2.07 µM
TGI [41]: 4.12 µM
GI50 [42]: 1.51 µM
TGI [42]: 3.06 µM
GI50 [43]: 2.03 µM
TGI [43]: 4.66 µM
GI50 [44]: 1.65 µM
TGI [44]: 3.01 µM
GI50 [45]: 1.48 µM
TGI [45]: 2.8 µM
GI50 [46]: 2.04 µM
TGI [46]: 4.42 µM
GI50 [47]: 1.95 µM
TGI [47]: 3.78 µM
GI50 [48]: 1.45 µM
TGI [48]: 3.31 µM
GI50 [49]: 2.13 µM
TGI [49]: 4.57 µM
GI50 [50]: 2 µM
TGI [50]: 5.02 µM
GI50 [51]: 1.91 µM
TGI [51]: 3.84 µM
GI50 [58]: 1.69 µM
TGI [58]: 3.23 µM
GI50 [53]: 1.72 µM
TGI [53]: 3.37 µM
GI50 [54]: 1.81 µM
TGI [54]: 3.37 µM
GI50 [55]: 1.96 µM
TGI [55]: 3.52 µM
